Assay results reported in patent US20080009418A1, “Selective Inhibitors” (Alchemia LTD., priority 2004, published 2008).

Columns and labels:
[1] = target: T1, Human δ-opioid (DOP) (Homo sapiens, UniProt P41143); assay: Radioligand binding, human δ-opioid (DOP) membranes, FlashPlate, [3H]-Bremazocine; details: compound at 10 μM; [3H]-Bremazocine, FlashPlate
T1 construct: purchased Perkin Elmer Biosignal
Method in brief: (§1)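 Cloned human receptor membranes were coated onto FlashPlate wells and incubated with radioligand and compound (added from a 0.5 mM DMSO daughter plate) for 1 hour at room temperature in the dark. Scintillation counting gave percent inhibition, with DMSO defining total and reference ligand defining non-specific binding.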

[2] = target: T2, Human κ-Opioid (KOP) (Homo sapiens, UniProt P41145); assay: Radioligand binding, human κ-opioid (KOP) membranes, filtration, [3H]-Diprenorphine; details: compound at 10 μM; [3H]-Diprenorphine, filtration
T2 construct: purchased Perkin Elmer Biosignal
T2 sequence (P41145 whole entry): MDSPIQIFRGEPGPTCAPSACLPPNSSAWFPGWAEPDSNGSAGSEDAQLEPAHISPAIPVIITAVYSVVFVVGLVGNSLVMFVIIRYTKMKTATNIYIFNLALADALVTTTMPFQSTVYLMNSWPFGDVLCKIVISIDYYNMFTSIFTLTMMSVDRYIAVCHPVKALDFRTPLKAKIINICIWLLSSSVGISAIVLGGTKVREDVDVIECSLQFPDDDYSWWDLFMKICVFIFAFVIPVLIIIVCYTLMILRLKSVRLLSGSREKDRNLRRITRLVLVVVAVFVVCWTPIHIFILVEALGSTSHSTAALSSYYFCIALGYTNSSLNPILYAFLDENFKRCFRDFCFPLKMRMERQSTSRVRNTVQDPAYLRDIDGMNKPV
Method in brief: (§2)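 Membranes from cloned human receptors were incubated with compound and radioligand for 1 hour at room temperature. Bound ligand was collected on 0.3% PEI-soaked filters, washed with cold 50 mM Tris-HCl pH 7.4, and counted by scintillation. Percent inhibition was computed against DMSO totals and reference-ligand nonspecific wells.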

[3] = target: T3, Human Melanocortin (MC3) (Homo sapiens, UniProt P41968); assay: Radioligand binding, human melanocortin MC3 membranes, FlashPlate, [125I]-NDP-αMSH; details: compound at 10 μM; [125I]-NDP-αMSH, FlashPlate
T3 construct: purchased Perkin Elmer Biosignal
T3 sequence (P41968 whole entry): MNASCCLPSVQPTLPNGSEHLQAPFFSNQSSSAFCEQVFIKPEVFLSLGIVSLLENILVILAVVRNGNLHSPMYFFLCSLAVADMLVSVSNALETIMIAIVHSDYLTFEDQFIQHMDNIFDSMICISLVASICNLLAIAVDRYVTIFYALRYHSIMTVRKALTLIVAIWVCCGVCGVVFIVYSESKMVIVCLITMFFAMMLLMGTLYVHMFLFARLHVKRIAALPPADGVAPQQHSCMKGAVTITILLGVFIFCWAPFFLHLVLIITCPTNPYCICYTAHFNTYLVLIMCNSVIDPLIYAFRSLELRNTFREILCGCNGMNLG
Method in brief: as §1

[4] = target: T4, Human Melanocortin (MC4) (Homo sapiens, UniProt P32245); assay: Radioligand binding, human melanocortin MC4 membranes, FlashPlate, [125I]-NDP-αMSH; details: compound at 10 μM; [125I]-NDP-αMSH, FlashPlate
T4 construct: purchased Perkin Elmer Biosignal
T4 sequence (P32245 whole entry): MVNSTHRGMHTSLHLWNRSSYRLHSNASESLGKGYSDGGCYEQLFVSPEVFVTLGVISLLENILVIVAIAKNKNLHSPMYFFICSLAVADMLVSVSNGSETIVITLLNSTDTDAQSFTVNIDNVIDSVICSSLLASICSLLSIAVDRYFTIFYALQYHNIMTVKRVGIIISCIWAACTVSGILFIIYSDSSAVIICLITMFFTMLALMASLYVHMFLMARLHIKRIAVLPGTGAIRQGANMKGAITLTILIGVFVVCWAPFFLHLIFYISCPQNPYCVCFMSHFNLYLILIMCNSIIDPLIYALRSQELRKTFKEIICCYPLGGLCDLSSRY
Method in brief: as §1

[5] = target: T5, Human melanocortin (MC5) (Homo sapiens, UniProt P33032); assay: Radioligand binding, human melanocortin MC5 membranes, FlashPlate, [125I]-NDP-αMSH; details: compound at 10 μM; [125I]-NDP-αMSH, FlashPlate
T5 construct: purchased Perkin Elmer Biosignal
T5 sequence (P33032 whole entry): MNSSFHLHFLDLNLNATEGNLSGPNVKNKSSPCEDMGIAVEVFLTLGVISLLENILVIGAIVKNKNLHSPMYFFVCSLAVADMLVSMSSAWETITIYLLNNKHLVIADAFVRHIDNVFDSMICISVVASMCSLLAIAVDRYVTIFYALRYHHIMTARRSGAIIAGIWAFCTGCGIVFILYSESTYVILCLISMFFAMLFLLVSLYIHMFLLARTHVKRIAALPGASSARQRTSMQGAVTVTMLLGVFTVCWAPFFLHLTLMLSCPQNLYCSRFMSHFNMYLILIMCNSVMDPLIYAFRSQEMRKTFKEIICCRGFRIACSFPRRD
Method in brief: as §1

[6] = target: T6, Human melanin-concentrating hormone (MCH1) (Homo sapiens, UniProt Q99705); assay: Radioligand binding, human melanin-concentrating hormone MCH1 membranes, FlashPlate, [125I]-S36057; details: compound at 10 μM; [125I]-S36057, FlashPlate
T6 construct: purchased Perkin Elmer Biosignal
T6 sequence (Q99705 whole entry): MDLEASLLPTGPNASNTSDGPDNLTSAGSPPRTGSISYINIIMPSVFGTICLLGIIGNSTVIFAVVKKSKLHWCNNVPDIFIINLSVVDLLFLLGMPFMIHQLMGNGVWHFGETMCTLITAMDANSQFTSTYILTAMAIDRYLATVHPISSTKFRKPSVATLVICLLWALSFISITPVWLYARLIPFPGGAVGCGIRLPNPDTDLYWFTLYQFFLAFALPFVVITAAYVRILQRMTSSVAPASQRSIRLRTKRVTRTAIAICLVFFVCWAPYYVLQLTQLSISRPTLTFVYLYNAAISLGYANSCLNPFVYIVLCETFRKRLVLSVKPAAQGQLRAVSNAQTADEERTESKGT
Method in brief: as §1

[7] = target: T7, Human μ-opioid (MOP) (Homo sapiens, UniProt P35372); assay: Radioligand binding, human μ-opioid (MOP) membranes, FlashPlate, [3H]-Naloxone; details: compound at 10 μM; [3H]-Naloxone, FlashPlate
T7 construct: purchased Perkin Elmer Biosignal
T7 sequence (P35372 whole entry): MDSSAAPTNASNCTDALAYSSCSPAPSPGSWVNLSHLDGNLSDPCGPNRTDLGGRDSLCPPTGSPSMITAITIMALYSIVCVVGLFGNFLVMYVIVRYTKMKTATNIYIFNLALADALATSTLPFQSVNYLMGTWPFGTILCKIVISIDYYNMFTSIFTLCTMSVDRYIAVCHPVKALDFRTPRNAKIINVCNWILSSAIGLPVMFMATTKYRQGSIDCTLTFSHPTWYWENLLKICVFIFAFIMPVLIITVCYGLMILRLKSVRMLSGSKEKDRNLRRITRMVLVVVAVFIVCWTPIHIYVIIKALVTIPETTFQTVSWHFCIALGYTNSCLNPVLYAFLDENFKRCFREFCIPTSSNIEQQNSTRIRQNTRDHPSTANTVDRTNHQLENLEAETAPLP
Method in brief: as §1

[8] = target: T8, Human neurokinin (NK1) (Homo sapiens, UniProt P25103); assay: Radioligand binding, human neurokinin NK1 membranes, filtration, [125I]-Substance P; details: compound at 10 μM; [125I]-Substance P, filtration
T8 construct: purchased Perkin Elmer Biosignal
T8 sequence (P25103 whole entry): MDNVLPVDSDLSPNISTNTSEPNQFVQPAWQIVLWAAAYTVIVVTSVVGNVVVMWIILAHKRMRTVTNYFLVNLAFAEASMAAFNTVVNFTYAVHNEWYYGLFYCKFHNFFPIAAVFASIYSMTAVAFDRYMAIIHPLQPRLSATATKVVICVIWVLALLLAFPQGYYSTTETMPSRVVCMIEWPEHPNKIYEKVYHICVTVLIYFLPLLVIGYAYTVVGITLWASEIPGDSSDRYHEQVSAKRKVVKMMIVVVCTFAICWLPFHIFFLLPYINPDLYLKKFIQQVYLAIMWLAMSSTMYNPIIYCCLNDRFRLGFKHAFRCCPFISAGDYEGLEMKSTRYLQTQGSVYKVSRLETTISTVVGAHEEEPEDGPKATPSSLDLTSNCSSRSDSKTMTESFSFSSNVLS
Method in brief: as §2

[9] = target: T9, Human neuropeptide Y (NPY-Y1) (Homo sapiens, UniProt P25929); assay: Radioligand binding, human neuropeptide Y NPY-Y1 membranes, FlashPlate, [125I]-PYY; details: compound at 10 μM; [125I]-PYY, FlashPlate
T9 construct: purchased Perkin Elmer Biosignal
T9 sequence (P25929 1-384): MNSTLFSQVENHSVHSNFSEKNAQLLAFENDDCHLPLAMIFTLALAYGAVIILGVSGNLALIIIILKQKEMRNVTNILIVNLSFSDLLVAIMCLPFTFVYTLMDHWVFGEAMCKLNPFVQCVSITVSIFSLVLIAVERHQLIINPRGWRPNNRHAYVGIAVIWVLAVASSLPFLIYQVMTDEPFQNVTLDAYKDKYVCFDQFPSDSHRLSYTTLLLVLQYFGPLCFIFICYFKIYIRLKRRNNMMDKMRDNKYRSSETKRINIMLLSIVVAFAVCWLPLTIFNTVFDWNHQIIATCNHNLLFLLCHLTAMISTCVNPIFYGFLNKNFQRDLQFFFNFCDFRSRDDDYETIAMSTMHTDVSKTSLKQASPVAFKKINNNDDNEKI
Method in brief: as §1

[10] = target: T10, Human opioid (ORL1) (Homo sapiens, UniProt P41146); assay: Radioligand binding, human opioid ORL1 membranes, FlashPlate, [125I]-Nociceptin; details: compound at 10 μM; [125I]-Nociceptin, FlashPlate
T10 construct: purchased Perkin Elmer Biosignal
T10 sequence (P41146 whole entry): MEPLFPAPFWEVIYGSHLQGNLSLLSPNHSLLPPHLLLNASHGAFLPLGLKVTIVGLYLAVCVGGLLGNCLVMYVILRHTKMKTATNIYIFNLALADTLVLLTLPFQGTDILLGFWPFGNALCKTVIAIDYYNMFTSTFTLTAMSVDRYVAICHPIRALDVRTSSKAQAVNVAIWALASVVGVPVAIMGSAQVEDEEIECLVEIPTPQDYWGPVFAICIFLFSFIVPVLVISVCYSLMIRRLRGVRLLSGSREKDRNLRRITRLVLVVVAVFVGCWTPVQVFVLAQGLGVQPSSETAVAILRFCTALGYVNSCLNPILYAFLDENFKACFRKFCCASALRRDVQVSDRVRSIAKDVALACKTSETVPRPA
Method in brief: as §1

[11] = target: T11, Mouse urotensin (mUR2) (Mus musculus, UniProt Q8VIH9); assay: Radioligand binding, mouse urotensin mUR2 membranes, FlashPlate, [125I]-Urotensin II; details: compound at 10 μM; [125I]-Urotensin II, FlashPlate
T11 construct: purchased Perkin Elmer Biosignal
T11 sequence (Q8VIH9 1-385): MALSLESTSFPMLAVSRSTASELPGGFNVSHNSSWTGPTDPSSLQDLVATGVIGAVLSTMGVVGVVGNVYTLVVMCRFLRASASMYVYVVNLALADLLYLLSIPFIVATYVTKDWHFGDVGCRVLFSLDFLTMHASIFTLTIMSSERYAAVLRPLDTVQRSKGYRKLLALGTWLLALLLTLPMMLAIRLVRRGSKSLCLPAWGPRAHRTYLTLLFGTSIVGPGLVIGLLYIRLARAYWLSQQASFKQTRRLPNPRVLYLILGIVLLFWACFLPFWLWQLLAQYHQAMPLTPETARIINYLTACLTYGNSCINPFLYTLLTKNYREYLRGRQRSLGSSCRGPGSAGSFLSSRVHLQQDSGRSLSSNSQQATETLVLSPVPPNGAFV
Method in brief: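 Cloned mouse urotensin (mUR2) receptor membranes from Perkin Elmer Biosignal were immobilized in FlashPlate microplates using a proprietary coating. Each well got 19.5 μl buffer, then 0.5 μl of DMSO, reference ligand, or compound. Adding 5 μl of [125I]-Urotensin II, diluted to 5× final concentration in binding buffer, started binding. Plates were sealed with TopSeal-A and incubated 1 hour at room temperature in the dark. Wells were counted for 30 seconds each on a TopCount after a 60-second delay, and percentage inhibition was calculated.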

T1 sequence (P41143 whole entry): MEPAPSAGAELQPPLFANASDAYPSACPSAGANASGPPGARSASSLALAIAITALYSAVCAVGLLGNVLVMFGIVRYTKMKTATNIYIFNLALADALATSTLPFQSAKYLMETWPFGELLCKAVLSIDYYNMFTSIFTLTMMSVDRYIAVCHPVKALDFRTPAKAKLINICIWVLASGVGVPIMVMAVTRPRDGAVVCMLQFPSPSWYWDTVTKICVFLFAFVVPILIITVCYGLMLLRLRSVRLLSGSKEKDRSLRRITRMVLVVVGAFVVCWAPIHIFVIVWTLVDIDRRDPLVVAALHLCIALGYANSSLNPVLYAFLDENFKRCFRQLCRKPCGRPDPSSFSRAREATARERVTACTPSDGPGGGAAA

| SMILES | A1: inhibition of radioligand binding [1] | A2: inhibition of radioligand binding [2] | A3: inhibition of radioligand binding [3] | A4: inhibition of radioligand binding [4] | A5: inhibition of radioligand binding [5] | A6: inhibition of radioligand binding [6] | A7: inhibition of radioligand binding [7] | A8: inhibition of radioligand binding [8] | A9: inhibition of radioligand binding [9] | A10: inhibition of radioligand binding [10] | A11: inhibition of radioligand binding [11] |
| --- | --- | --- | --- | --- | --- | --- | --- | --- | --- | --- | --- |
| CSC1O[C@H](COCc2ccc(-c3ccccc3)cc2)[C@@H](O)[C@@H](OCc2ccc(Cl)cc2)[C@H]1NC(=O)CCN (stereo partly shown) [compound 276] | − (“−” indicates less than 50% inhibition at 10 μM) | − (“−” indicates less than 50% inhibition at 10 μM) | − (“−” indicates less than 50% inhibition at 10 μM) | − (“−” indicates less than 50% inhibition at 10 μM) | − (“−” indicates less than 50% inhibition at 10 μM) | − (“−” indicates less than 50% inhibition at 10 μM) | − (“−” indicates less than 50% inhibition at 10 μM) | + (“+” indicates greater than 50% inhibition at 10 μM) | − (“−” indicates less than 50% inhibition at 10 μM) | − (“−” indicates less than 50% inhibition at 10 μM) | − (“−” indicates less than 50% inhibition at 10 μM) |
| CSC1O[C@H](COCc2ccc(-c3ccccc3)cc2)[C@@H](O)[C@@H](OCc2ccc(Cl)cc2)[C@H]1NC(=O)CCNC(=N)N (stereo partly shown) [compound 277] | − (“−” indicates less than 50% inhibition at 10 μM) | − (“−” indicates less than 50% inhibition at 10 μM) | + (“+” indicates greater than 50% inhibition at 10 μM) | − (“−” indicates less than 50% inhibition at 10 μM) | − (“−” indicates less than 50% inhibition at 10 μM) | − (“−” indicates less than 50% inhibition at 10 μM) | − (“−” indicates less than 50% inhibition at 10 μM) | + (“+” indicates greater than 50% inhibition at 10 μM) | − (“−” indicates less than 50% inhibition at 10 μM) | − (“−” indicates less than 50% inhibition at 10 μM) | − (“−” indicates less than 50% inhibition at 10 μM) |
| CSC1O[C@H](COCc2ccc(-c3ccccc3)cc2)[C@@H](O)[C@@H](OCc2ccc(Cl)cc2)[C@H]1NC(=O)CCCN (stereo partly shown) [compound 278] | − (“−” indicates less than 50% inhibition at 10 μM) | − (“−” indicates less than 50% inhibition at 10 μM) | − (“−” indicates less than 50% inhibition at 10 μM) | − (“−” indicates less than 50% inhibition at 10 μM) | − (“−” indicates less than 50% inhibition at 10 μM) | − (“−” indicates less than 50% inhibition at 10 μM) | − (“−” indicates less than 50% inhibition at 10 μM) | + (“+” indicates greater than 50% inhibition at 10 μM) | − (“−” indicates less than 50% inhibition at 10 μM) | − (“−” indicates less than 50% inhibition at 10 μM) | − (“−” indicates less than 50% inhibition at 10 μM) |
| CSC1O[C@H](COCc2ccc(-c3ccccc3)cc2)[C@@H](O)[C@@H](OCc2ccc(Cl)cc2)[C@H]1NC(=O)CCCNC(=N)N (stereo partly shown) [compound 279] | − (“−” indicates less than 50% inhibition at 10 μM) | − (“−” indicates less than 50% inhibition at 10 μM) | − (“−” indicates less than 50% inhibition at 10 μM) | − (“−” indicates less than 50% inhibition at 10 μM) | + (“+” indicates greater than 50% inhibition at 10 μM) | − (“−” indicates less than 50% inhibition at 10 μM) | − (“−” indicates less than 50% inhibition at 10 μM) | + (“+” indicates greater than 50% inhibition at 10 μM) | − (“−” indicates less than 50% inhibition at 10 μM) | − (“−” indicates less than 50% inhibition at 10 μM) | − (“−” indicates less than 50% inhibition at 10 μM) |
| CSC1O[C@H](COCc2ccc3ccccc3c2)[C@@H](O)[C@@H](OCc2ccc(Cl)cc2)[C@H]1NC(=O)CN (stereo partly shown) [compound 280] | − (“−” indicates less than 50% inhibition at 10 μM) | − (“−” indicates less than 50% inhibition at 10 μM) | − (“−” indicates less than 50% inhibition at 10 μM) | − (“−” indicates less than 50% inhibition at 10 μM) | − (“−” indicates less than 50% inhibition at 10 μM) | − (“−” indicates less than 50% inhibition at 10 μM) | − (“−” indicates less than 50% inhibition at 10 μM) | + (“+” indicates greater than 50% inhibition at 10 μM) | − (“−” indicates less than 50% inhibition at 10 μM) | − (“−” indicates less than 50% inhibition at 10 μM) | − (“−” indicates less than 50% inhibition at 10 μM) |
